# Source: US11504371B2, “Quinazolines compound, preparation method therefor and application thereof” (Beijing Normal University, priority 2017, dated 2022)
# Several values for one entry are separate records, joined by “and”; a condition that tells them apart may be missing. Equal values may be shown once. Entries after “also recorded” stand apart in the source; their conditions may differ. Marks after values point to notes of the source that are not given here.
# Experiments:
# [1] = system: human lung cancer cell line (A549); assay: MTT assay, tumor cell proliferation inhibition, A549; type: cell-based
# [2] = system: human prostate cancer cell line (DU145); assay: MTT assay, tumor cell proliferation inhibition, DU145; type: cell-based; conditions: Homo sapiens, DU-145; DU145, MTT, 72 h; read-out: Tumor inhibition rate (IC50)
# [3] = system: human neuroblastoma cell line (SH-SY5Y); assay: MTT assay, tumor cell proliferation inhibition, SH-SY5Y; type: cell-based; conditions: Homo sapiens, SH-SY5Y, 72 h, read-out: Tumor inhibition rate (IC50)
# [4] = system: A549 cells; assay: Cell cycle experiment (PI staining, flow cytometer); type: cell-based, human; conditions: for Cell proportion, G0/G1 / Cell proportion, G2/M / Cell proportion, S: 48 h
# Experimental: Experiment procedure: A549 cells in logarithmic growth phase (purchased from the Cancer Hospital of Chinese Academy of Medical Sciences) were seeded into 6-well cell culture plates, adjusted to 5×10^5 cells per well, and cultured in an incubator at 37° C., 5% CO2, and saturated humidity for 24 h. The used medium was discarded. The cells were treated with the target compounds in different concentrations for 48 h, and grouped to an administration group and a control group (non-administered). The cells were digested with 0.25% trypsin to form a single cell suspension, centrifuged at 1500 r/min for 5 min. The supernatant was discarded, and the cells were collected. The cells were washed twice with precooled PBS buffer, centrifuged at 1500 r/min for 5 min, added to 5 mL of precooled 70% ethanol, and placed at 4° C. for at least 24 h. After centrifugation, the supernatant was discarded, and the cells were washed twice with PBS and collected by centrifugation. The cells were suspended in 400 μL PBS, added with 30 μL of RNaseA (purchased from Corning Inc., USA) at the concentrations from 1 mg/mL to 50 μg/mL, and incubated at 37° C. for 30 min. The centrifuge tube was then inserted into an ice bath to stop digestion. After the tube was cooled, 50 μL of PI staining solution (500 μg/mL) (purchased from Corning Inc., USA) was added to a final concentration of 50 μg/mL. The tube was immersed in an ice bath to perform straining in the dark for 30 min-40 min, filtered through a 300 mesh nylon mesh, and tested by flow cytometer (FACS Vantage SE: BD, USA).
# [5] = system: cell membrane; assay: Cell membrane permeability test (Hoechst 33342 fluorescence); type: cell-based; conditions: Hoechst 33342 fluorescence observation
# Text: One of the anilino polyethylene glycol ether cycloquinazoline substituted with a substituted arylmethyl heteroatomic group of formula (I), N-(4-((4-nitrophenyl)methoxy)phenyl)-6,7-(benzo-9-crown-3)-4-quinazolinamine, is studied by cell membrane permeability test. […] As the concentration of the target compound increases, the permeability is improved and the cells undergo apoptosis.
# [6] = system: A549 cancer cells; assay: Nude mice bearing A549 cancer cells; type: in vivo
# Experimental: In the present invention, the antitumor activity was evaluated by intraperitoneal injection to nude mice bearing different tumors, for compounds 3 (N-(4-((4-nitrophenyl)methoxy)phenyl)-6,7-(benzo-9-crown-3)-4-quinazolinamine) and 23 (compounds No. are shown in Table 1) (N-(3-((4-trifluoromethylphenyl)methoxy)phenyl)-6,7-(benzo-12-crown-4)-4-quinazolinamine) of formula (I).
# Firstly, a tumor-bearing nude mouse model was established. 0.2-1 mL of cell suspension was inoculated subcutaneously into the left lower limb of nude mice, and the drug was administered when the tumor volume reached about 100 mm^3. Then, grouping and administration were performed; the nude mice (5 mice in each group) were randomly divided into several groups, such as ultra-pure water control group (blank), positive drug control group, and different dosage treatment groups. The nude mice in each group were administered continuously for 40 days. The nude mice were weighted every other day during the administration. Tumor volumes were measured and calculated. Then tumor growth curve, tumor inhibition curve (see FIGS. 1 and 3) and weight change curve (see FIGS. 2 and 4) were drawn. […]. Among those, docetaxel suffers from high cumulative neurotoxic toxicity and drug resistance although it has the best effect. Comparing to docetaxel, compound 23 has a much lower toxicity and drug resistance, and thus has a great development prospect. […]
# [7] = system: human breast cancer cell line (MCF-7); assay: MTT assay, tumor cell proliferation inhibition, MCF-7; type: cell-based; conditions: Homo sapiens, MCF7; MCF-7, MTT, 72 h; read-out: Tumor inhibition rate (IC50)
# [8] = system: cells A549; assay: Intracellular reactive oxygen species (fluorescence spectrometer); type: cell-based, human; conditions: A549 after treatment
# Text: A part of the compound of anilino polyethylene glycol ether cycloquinazoline substituted with a substituted arylmethyl heteroatomic group represented by formula (I) are studied by detecting cell mitochondrial membrane potential and intracellular reactive oxygen species.
# [9] = system: human hepatoma cell line (HepG2); assay: MTT assay, tumor cell proliferation inhibition, HepG2; type: cell-based; conditions: Homo sapiens, 72 h, read-out: Tumor inhibition rate (IC50)
smiles,measurement,setting,value
"O=[N+]([O-])c1ccc(COc2ccc(Nc3ncnc4cc5c(cc34)OCCOCCO5)cc2)cc1 [Compound 3, N-(4-((4-nitrophenyl)methoxy)phenyl)-6,7-(benzo-9-crown-3)-4-quinazolinamine]",IC50,"[1]; Homo sapiens, A549, MTT, 72 h, read-out: Tumor inhibition rate (IC50)",6.62 µM
same,inhibitory activity on A549 (in words),"[1]; MTT, summary of Table 1",strong specific inhibitory activity
same,IC50,[2],> 100 µM
same,IC50,[3],55.2 µM
same,cell cycle block (in words),"[4]; A549, 0-40 μM",can block A549 in G0/G1 phase
same,"Cell proportion, G0/G1","[4]; A549, 5 μM",84.51 ± 0.32 ^a %
same,"Cell proportion, G2/M","[4]; A549, 5 μM",3.06 ± 0.12 ^ %
same,"Cell proportion, S","[4]; A549, 5 μM",12.42 ± 0.10%
same,"Cell proportion, G0/G1","[4]; A549, 10 μM",85.58 ± 0.44 ^a %
same,"Cell proportion, G2/M","[4]; A549, 10 μM",3.05 ± 0.19 ^ %
same,"Cell proportion, S","[4]; A549, 10 μM",11.39 ± 0.64%
same,"Cell proportion, G0/G1","[4]; A549, 20 μM",87.23 ± 0.31 ^a %
same,"Cell proportion, G2/M","[4]; A549, 20 μM",1.41 ± 0.05 ^a %
same,"Cell proportion, S","[4]; A549, 20 μM",11.68 ± 0.26%
same,"Cell proportion, G0/G1","[4]; A549, 40 μM",90.08% and 90.08 ± 0.62 ^a %
same,"Cell proportion, G2/M","[4]; A549, 40 μM",2.04 ± 0.14 ^a %
same,"Cell proportion, S","[4]; A549, 40 μM",7.90 ± 0.50 ^a %
same,effect on cell membrane permeability,[5],can increase the permeability of the cell membrane
same,tumor inhibition,"[6]; 60 mg/Kg, FIG. 1",significant inhibited
same,body weight,"[6]; 60 mg/Kg, FIG. 2",not decreased significantly
same,"tumor inhibitory effect (tumor volume, FIG. 1)","[6]; nude mice bearing A549, intraperitoneal injection",remarkable tumor inhibitory effect; also recorded: high inhibitory effect
same,inhibitory activity against A549 compared with gefitinib,"[6]; same dose 45 mg/Kg, FIG. 1",significantly higher
same,IC50,[7],39.7 µM
same,intracellular reactive oxygen species (ROS),[8],increased intracellular reactive oxygen species (ROS) and apoptosis
same,IC50,[9],> 100 µM
